Test results reported in article PMC3216237 (Environmental science & technology, 2011).

Tests used:
[1] = tested on: rat liver microsomes; assay type: in vitro ADME; conditions: for Enantiomeric fraction (EF) of OH-PCB metabolite: column not specified, microsomal incubation 50 μM PCB, 30 min
[2] = tested on: Ryanodine receptor (RyR); conditions: enantiospecific, only this atropisomer active; cited from earlier work
[3] = liver of rats treated with Aroclor 1254; cited from earlier work

Oc1cc(Cl)c(Cl)c(-c2ccc(Cl)cc2Cl)c1Cl [5–91]
Enantiomeric fraction (EF) of OH-PCB metabolite [1]: 0.54

Oc1cc(Cl)c(Cl)c(-c2cc(Cl)ccc2Cl)c1Cl [5–95]
Enantiomeric fraction (EF) of OH-PCB metabolite [1]: approximately 0.33

Oc1cc(Cl)c(Cl)c(-c2cc(Cl)c(Cl)cc2Cl)c1Cl [5–149]
Enantiomeric fraction (EF) of OH-PCB metabolite [1]: 0.65

Oc1cc(Cl)c(Cl)c(-c2ccc(Cl)c(Cl)c2Cl)c1Cl [5′-132]
Enantiomeric fraction, CB column ([1]; Cyclosil-B column, analysis conducted at 170 °C, metabolite analysed as MeO-PCB): 0.31 ^a, ^# | Enantiomeric fraction (EF) of OH-PCB metabolite [1]: 0.31

Clc1ccc(Cl)c(-c2c(Cl)ccc(Cl)c2Cl)c1Cl [(-)-PCB 136, 2,2′,3,3′,6,6′-hexachlorobiphenyl]
Sensitization of RyRs [2]: active

Clc1ccc(Cl)c(-c2c(Cl)ccc(Cl)c2Cl)c1 [PCB 95]
Enantiomeric fraction (EF) in liver [3]: 0.63

Clc1cc(Cl)c(-c2c(Cl)ccc(Cl)c2Cl)cc1Cl [PCB 149]
Enantiomeric fraction (EF) in liver [3]: 0.45
